Measured values published in publication PMC4718634, “Murine GPRC6A Mediates Cellular Responses to L-Amino Acids, but Not Osteocalcin Variants” (PLoS ONE, 2016).
“Also recorded” adds a separate entry of the source. Bridge positions count the residues as written; N and C are the ends. Ends that are not written are not given here.

Assays:
mGPRC6A (mouse GPRC6A) [1] = molecular target: T1, mGPRC6A (mouse GPRC6A) (Mus musculus, UniProt Q8K4Z6); assay: Ca^2+i mobilisation, FlpIn-TREx-HEK293-mGPRC6A cells; type: cell-based
T1 sequence (Q8K4Z6 21-928): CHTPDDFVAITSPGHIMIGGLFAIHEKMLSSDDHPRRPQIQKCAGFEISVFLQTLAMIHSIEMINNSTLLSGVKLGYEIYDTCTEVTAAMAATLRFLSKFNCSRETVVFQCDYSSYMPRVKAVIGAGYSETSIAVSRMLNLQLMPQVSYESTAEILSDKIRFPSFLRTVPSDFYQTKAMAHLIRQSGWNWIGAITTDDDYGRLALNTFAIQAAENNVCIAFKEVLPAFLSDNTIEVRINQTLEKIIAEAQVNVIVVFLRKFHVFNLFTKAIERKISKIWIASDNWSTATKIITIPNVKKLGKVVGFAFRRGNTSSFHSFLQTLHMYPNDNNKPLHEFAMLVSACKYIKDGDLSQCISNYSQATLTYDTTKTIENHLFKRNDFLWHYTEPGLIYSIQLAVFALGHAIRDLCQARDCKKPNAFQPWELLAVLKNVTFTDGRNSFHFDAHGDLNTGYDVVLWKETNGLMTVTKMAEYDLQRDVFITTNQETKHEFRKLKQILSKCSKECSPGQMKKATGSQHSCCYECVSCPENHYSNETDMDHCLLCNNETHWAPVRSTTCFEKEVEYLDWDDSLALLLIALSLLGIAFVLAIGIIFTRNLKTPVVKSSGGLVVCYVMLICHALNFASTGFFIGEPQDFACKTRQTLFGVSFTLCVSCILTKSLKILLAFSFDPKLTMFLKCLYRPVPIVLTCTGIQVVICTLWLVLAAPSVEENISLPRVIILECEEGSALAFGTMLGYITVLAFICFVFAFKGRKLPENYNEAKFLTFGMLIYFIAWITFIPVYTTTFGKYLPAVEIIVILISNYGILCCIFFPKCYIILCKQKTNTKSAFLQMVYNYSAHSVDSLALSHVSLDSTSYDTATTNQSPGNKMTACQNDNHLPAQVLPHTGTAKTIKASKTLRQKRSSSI
Procedure: (§1) pcDNA 5/FRT/TO constructs were isogenically integrated into a FlpIn-TREx-HEK293 cell line (Life Technologies). FlpIn-TREx-HEK293-mGPRC6A and FlpIn-TREx-HEK293-hGPRC6A cells were then selected using 600 μg/ml hygromycin and 5 μg/ml blasticidin and grown in culture medium consisting of Dulbecco’s Modified Eagle Medium (DMEM), supplemented with 10% (v/v) foetal bovine serum (FBS) at 37°C in 5% CO2 and were sub-cultured in a 1:3 ratio every 3–4 days. Cells were cultured overnight in the presence of 1 μg/ml tetracycline to induce GPRC6A expression. […] 48 h after transfection, cells were selected using 3 μg/ml puromycin and grown as above.
FlpIn-TREx-HEK293-mGPRC6A cells were seeded into T75 flasks at 70% confluency. Cells were transfected with 15μg of plasmid DNA (Gαq or GαqG66D) with Lipofectamine LTX according to manufacturer's instructions, then incubated for 24h at 37°C in 5% CO2. Cells were plated into 96-well plates (10^5 cells/well) and equilibrated at 37°C in 5% CO2 for 4-6h to adhere, whereupon cells were serum starved overnight at 37°C in 5% CO2. For the assay, cells were washed twice in Ca^2+ assay buffer (150 mM NaCl, 2.6 mM KCl, 1.2 mM MgCl2, 10 mM dextrose, 10 mM HEPES, 2.2 mM CaCl2, 0.5% (w/v) BSA and 4 mM probenecid; pH 7.4). Buffer was then replaced with Ca^2+ assay buffer containing 1μM Fluo-4-AM and incubated for 1h at 37°C in 5% CO2. Cells were washed twice more and replaced with Ca^2+ assay buffer at 37°C. Serial dilutions of test agonists were added by injection in a Flexstation™ (Molecular Devices) and fluorescence was measured at 485nm excitation and 520nm emission wavelengths. Agonist responses were normalised to the peak of response to 100 μM ATP.
(§2) Data for all HEK293 assays represent the mean ± SEM of at least three independent experiments (except cell impedance, n = 2). For GLP-1 release, the data represent mean ± SEM of three to five independent experiments (except for OCN, wash; n = 2). For insulin release assays, data represent the mean ± SEM of three independent experiments (except for islet studies; n = 2). Insulin release data were normalised to the response to vehicle in either low or high [glucose]. Statistical analysis for GLP-1 release data were performed by one-way ANOVA, followed by Sidak’s multiple comparisons test (treating wash / no wash datasets separately). Statistical analyses for insulin release data were performed by two-way ANOVA (with [glucose] and drug treatment as group variables), followed by Sidak’s multiple comparisons test. Where only high [glucose] groups were evaluated, statistical analysis was by one-way ANOVA followed by Sidak’s multiple comparisons test.

GPRC6A = tested on: GPRC6A; set-up: method as in PMID 15576628; settings: chimera with goldfish 5.24 receptor and full length GPRC6A; ref [1]; cited from earlier work
mGPRC6A (mouse GPRC6A) [2] = molecular target: T1, mGPRC6A (mouse GPRC6A); assay: Cyclic AMP accumulation, FlpIn-TREx-HEK293-mGPRC6A cells; type: cell-based; settings: 30 min, 0.5 mM IBMX; Alphascreen; Fig 3A
Procedure: as §1
HEK293-mGPRC6A cells were seeded at a density of 10^5 cells per well into PDL-coated 96-well plates and incubated overnight in DMEM, supplemented with 10% FBS (v/v) at 37°C in 5% CO2. Cells were then incubated in 90 μl of stimulation buffer (HBSS containing 5 mM HEPES, 0.1% BSA (w/v), 0.5 mM IBMX; pH 7.4) for 30 min at 37°C. Test compounds (10 μl at 10 x final) were added and cells were incubated for an additional 30 min at 37°C. The medium was removed and cells were incubated in 50 μl of ice-cold 100% ethanol. Once evaporated, 100 μl of lysis buffer (5 mM HEPES, 0.1% BSA (w/v), 0.3% Tween-20; pH 7.4) was added to the cells and samples were stored at -20°C until further analysis. Samples were analysed using the Alphascreen® cAMP assay kit (Perkin Elmer) following manufacturer instructions. Briefly, 10 μl of lysates were added to a 384-well Optiplate. After addition of 5 μl of acceptor bead mix, plate was incubated at RT for 30 min followed by addition of 15 μl of donor bead mix. After overnight (16 h) incubation at RT, plates were read using the Envision plate reader.

GLUTag cells = assay: GLP-1 release from GLUTag cells; type: cell-based, murine; settings: 0.01–10 ng/ml; with or without cell washing; 2 h; Fig 6A
Procedure: Intestinal L-cell model GLUTag cells were seeded in 24-well plates coated with Matrigel and incubated for 6 days in DMEM with 10% FBS, 100 U/ml penicillin, 100 μg/ml streptomycin at 37°C in 5% CO2 and grown for 4–5 days. Where indicated, cells were washed (1 or 2 x 1h) with Krebs-HEPES buffer (20 mM HEPES, 118 mM NaCl, 4.7 mM KCl, 1.2 mM MgSO4, 5 mM NaHCO3, 1.2 mM KH2PO4, 2.5 mM CaCl2, 5.5 mM glucose, 0.2% BSA (w/v), pH 7.2) containing vildagliptin (300 μM) prior to addition of test compounds in the same buffer. After 2 h incubation at 37°C in 5% CO2, the supernatant was recovered and centrifuged at 500 rpm for 5 min. Where used, NPS-2143 pre-treatment was for 30 min.
GLP-1 content in the cell supernatant was measured by ELISA (EGLP-35K, Millipore), according to manufacturer’s instructions after overnight incubation of 15 μl supernatant in 100 μl Krebs-HEPES buffer at 4°C. After 5 x washes, 200 μl of detection conjugate was added and incubated for 2 h at RT. After 3 x washes the reaction was developed with 200 μl of diluted substrate (1:200) for 20 min and terminated by addition of 50 μl stop solution. After 5 min, fluorescence was then measured using 355 nm excitation and 460 nm emission, transforming the obtained signal into pmol GLP-1/well/ml and corrected for GLUTag cell protein content as determined using the method of Bradford (1976).
as §2, with “Concentration-response data were analysed using a three or four parameter logistic function (Motulsky & Christopoulos, 2004) to generate estimates of agonist potency (LogEC50). Data” for “Data”

β-TC6 cells = assay: Insulin release from β-TC6 cells; type: cell-based, murine; settings: OCN 0.03–100 ng/ml; both glucose concentrations; S3 Fig A
Procedure: (§3) MIN6 or βTC-6 cells were seeded in 24-well plates at 170,000 cells per well in DMEM (containing 4.5g/L glucose, 10 mM HEPES, 100 U/ml penicillin, 100 μg/ml streptomycin and 15% de-complemented FBS) and incubated at 37°C / 5% CO2 for 72 h. Cells were then washed with 500 μl PBS and incubated in 500 μl deprivation media (DMEM with zero glucose, 10 mM HEPES, 1 mM Na-pyruvate, 100 U/ml penicillin, 100 μg/ml streptomycin, 15% de-complemented FBS) for 2 h at 37°C. Media was aspirated and after washing with 500 μl PBS, cells were treated with 250 μl of Krebs buffer (250 mM NaCl, 5.9 mM KCl, 1.2 mM MgCl2, 1.3 mM CaCl2, 25 mM HEPES, 0.1% BSA (w/v), and 2 mM or 16.7 mM glucose; pH 7.4) in the presence or absence of test compound. After incubation for 2 h at 37°C, the assay was terminated by placing the plates on ice and supernatants were transferred to a 96-well plate in preparation for insulin ELISA (Alpco) following manufacturer’s instructions. The cell monolayer was washed twice with 500 μl of PBS and then lysed using 250 μl of 1 N NaOH prior to protein measurement by the method of Bradford (1976).
as §2, with “Concentration-response data were analysed using a three or four parameter logistic function (Motulsky & Christopoulos, 2004) to generate estimates of agonist potency (LogEC50). Data” for “Data”

INS-1(832) cells = assay: Label-free cell impedance, INS-1(832) cells; type: cell-based, rat; settings: Gprc6a-negative; EBSS, 2.8 mM glucose; Fig 7; two-way ANOVA, *P < 0.05, **P < 0.01 vs Vehicle; listed as synthetic mouse OCN
Procedure: For INS-1 cells, 100 μl of medium (RPMI 1640 no glucose, 10% FBS, 55 μM β-mercaptoethanol, 1 mM sodium pyruvate, 10 mM HEPES, 100 U/ml penicillin, 100 μg/ml streptomycin, 11.1 mM glucose) was added per well to an E-plate 96 and a background reading taken. Cells were seeded at 2 x 10^4 / well and the plates incubated in the instrument for 48 h. On the day of the experiment, media was changed to EBSS buffer (180 μl; 2.8 mM glucose, 1.8 mM CaCl2, 5.3 mM KCl, 0.8 mM MgSO4, 117 mM NaCl, 26 mM NaHCO3, 1 mM NaH2PO4). After 2 h incubation, cells were stimulated with 20 μl test compound (10 x final) prepared in the same buffer. Data capture and analysis were as for HEK293 cells.

MIN6 cells = assay: Insulin release from MIN6 cells; type: cell-based, murine; settings: mouse OCN 0.03–30 ng/mL, 0.03–100 ng/mL (Fig 6B legend); low and high glucose
Procedure: as §3
as §2, with “Concentration-response data were analysed using a three or four parameter logistic function (Motulsky & Christopoulos, 2004) to generate estimates of agonist potency (LogEC50). Data” for “Data”

NCCCC[C@H](N)C(=O)O [L-lysine]
EC50 (mGPRC6A (mouse GPRC6A) [1]): 15.8 µM | potency at murine GPRC6A (calcium and inositol phosphate, words) (mGPRC6A (mouse GPRC6A) [1]; calcium mobilisation and inositol phosphate accumulation, Discussion): most potent agonists | rank order of potency, Ca^2+ mobilisation (mGPRC6A (mouse GPRC6A) [1]; co-expressing GαqG66D, Fig 1D): L-ornithine > L-arginine = L-lysine | agonist response of GPRC6A (GPRC6A): mediates responses to L-amino acids

C=C[C@@]1(C)CC(=O)[C@]2(O)[C@@]3(C)[C@@H](O)CCC(C)(C)[C@@H]3[C@H](O)[C@H](OC(C)=O)[C@@]2(C)O1 [forskolin]
stimulation of cAMP accumulation (mGPRC6A (mouse GPRC6A) [2]): robust increases in cAMP levels

YLYQWLGAPVPYPDPLEPRREVCELNPDCDELADHIGFQEAYRRFYGPV-NH2/-COOH (disulfide) [human synthetic OCN (acid form), synthetic de-carboxylated human osteocalcin, Federation Bioscience]
GLP-1 release, OCN (GLUTag cells): did not increase GLP-1 release | insulin secretion, OCN (β-TC6 cells): no significant effect

mouse synthetic OCN: synthetic de-carboxylated mouse osteocalcin, Federation Bioscience (YLGASVPSPDPLEPTREQCELNPACDELSDQYGLKTAYKRIYGITI-OH; disulfide 19-25 (inferred); not fully specified)
change in cell impedance (cell index) (INS-1(832) cells): significant changes in cell impedance; also recorded: Concentration-dependent increases in cell index | insulin secretion, OCN (MIN6 cells): did not affect insulin secretion
